Results on eight compounds are retold here after patent US20090306112A1, “ANTIVIRAL PROTEASE INHIBITORS” (Gilead Sciences, Inc., priority 2006, published 2009).

Bounds are passed on as bounds.

This experiment has as its target T1, recombinant HIV-1 protease expressed in E. Coli (Human immunodeficiency virus type 1 group M subtype B, UniProt P04585).
T1 construct: Enzyme: recombinant HIV-1 protease expressed in E. Coli; purchased Bachem California, Inc. (Torrance, Calif.) H-9040; host or cells: E. coli
Nature of the experiment: HIV-1 Protease Enzyme Assay (Ki), fluorimetric detection of hexapeptide substrate cleavage. The settings on record: tight-binding competitive inhibition; 37° C., pH 5.3, final substrate concentration 40 μM, enzyme 1 to 2.5 nM. Type of experiment: biochemical. The source says: Biological Assays Used for the Characterization of HIV Protease Inhibitors HIV-1 Protease Enzyme Assay (Ki)
The assay is based on the fluorimetric detection of synthetic hexapeptide substrate cleavage by HIV-1 protease in a defined reaction buffer as initially described by M. V. Toth and G. R. Marshall, Int. J. Peptide Protein Res. 36, 544 (1990)
Substrate: (2-aminobenzoyl)Thr-Ile-Nle-(p-nitro)Phe-Gln-Arg
Substrate supplied by Bachem California, Inc. (Torrance, Calif.; Cat. no. H-2992)
Enzyme: recombinant HIV-1 protease expressed in E. Coli
Enzyme supplied by Bachem California, Inc. (Torrance, Calif.; Cat. no. H-9040)
Reaction buffer: • 100 mM ammonium acetate, pH 5.3 • 1 M sodium chloride • 1 mM ethylendiaminetetraacetic acid • 1 mM dithiothreitol • 10% dimethylsulfoxide
Assay Protocol for the Determination of Inhibition Constant Ki:
• 1. Prepare series of solutions containing identical amount of the enzyme (1 to 2.5 nM) and a tested inhibitor at different concentrations in the reaction buffer • 2. Transfer the solutions (190 uL each) into a white 96-well plate • 3. Preincubate for 15 min at 37° C. • 4. Solubilize the substrate in 100% dimethylsulfoxide at a concentration of 800 μM. Start the reaction by adding 10 μL of 800 μM substrate into each well (final substrate concentration of 40 μM) • 5. Measure the real-time reaction kinetics at 37° C. by using Gemini 96-well plate fluorimeter (Molecular Devices, Sunnyvale, Calif.) at λ(Ex)=330 nm and λ(Em)=420 nm • 6. Determine initial velocities of the reactions with different inhibitor concentrations and calculate Ki (in picomolar concentration units) value by using EnzFitter program (Biosoft, Cambridge, U.K.) according to an algorithm for tight-binding competitive inhibition described by Ermolieff J., Lin X., and Tang J., Biochemistry 36, 12364 (1997)
`CC(C)(C)C(NC(=O)C(F)(F)F)C(=O)NN(Cc1ccc(-c2ccccn2)cc1)C[C@H](O)[C@H](Cc1ccccc1)NC(=O)O[C@H]1CO[C@H]2OCC[C@H]21` (some centres unmarked) [Example N]: the Ki was below 0.03 nM.

For `Cc1cccc(C)c1OCC(=O)NN(Cc1ccc(-c2ccccn2)cc1)C[C@H](O)[C@H](Cc1ccccc1)NC(=O)O[C@H]1CO[C@H]2OCC[C@H]21` [Example AN], the Ki was below 0.03 nM. As to `CC(C)(C)C(NC(=O)OCc1cscn1)C(=O)NN(Cc1ccc(-c2ccccn2)cc1)C[C@H](O)[C@H](Cc1ccccc1)NC(=O)O[C@H]1CO[C@H]2OCC[C@H]21` (some centres unmarked) [Example M], the Ki is below 0.03 nM.

For `COC(=O)NC(C(=O)NN(Cc1ccc(-c2ccccn2)cc1)C[C@H](O)[C@H](Cc1ccccc1)NC(=O)O[C@H]1C(=O)OCC1(C)C)C(C)(C)C` (some centres unmarked) [Example C], the Ki is below 0.03 nM.

As to `CC(C)OC(=O)NC(C(=O)NN(Cc1ccc(-c2ccccn2)cc1)C[C@H](O)[C@H](Cc1ccccc1)NC(=O)O[C@H]1CO[C@H]2OCC[C@H]21)C(C)(C)C` (some centres unmarked) [Example J], the Ki is below 0.03 nM. Take `COC(=O)NC(C(=O)NN(Cc1ccc(OCc2ccoc2)cc1)C[C@H](O)[C@H](Cc1ccc(OC)cc1)NC(=O)O[C@H]1CO[C@H]2OCC[C@H]21)C(C)(C)C` (some centres unmarked) [Example V]: the Ki is below 0.03 nM.

Take `COC(=O)NC(C(=O)NN(Cc1ccc(-c2ccncc2)cc1)C[C@H](O)[C@H](Cc1ccc(OC)cc1)NC(=O)O[C@H]1CO[C@H]2OCC[C@H]21)C(C)(C)C` (some centres unmarked) [Example Q]: the inhibition constant Ki is below 0.03 nM. Under `COC(=O)NC(C(=O)NN(Cc1ccc(OCc2ccncc2)cc1)C[C@H](O)[C@H](Cc1ccc(OC)cc1)NC(=O)O[C@H]1CO[C@H]2OCC[C@H]21)C(C)(C)C` (some centres unmarked) [Example T] stands below 0.03 nM.
